Assay results: patent US10526389B2, “Peptides and combinations of peptides for use in immunotherapy against lung cancer, including NSCLC and other cancers” (Immatics Biotechnologies GmbH, priority 2015, dated 2020)
One block for each substance: values may come before it.

Tests used:
[1] = test system: MHC class I; assay: MHC binding assay (UV-ligand exchange, ELISA); set-up: species or system human; settings: yield of UV-ligand exchange reaction
From the text: Candidate peptides for T cell based therapies according to the present invention were further tested for their MHC binding capacity (affinity). The individual peptide-MHC complexes were produced by UV-ligand exchange, where a UV-sensitive peptide is cleaved upon UV-irradiation, and exchanged with the peptide of interest as analyzed. Only peptide candidates that can effectively bind and stabilize the peptide-receptive MHC molecules prevent dissociation of the MHC complexes. To determine the yield of the exchange reaction, an ELISA was performed based on the detection of the light chain (62m) of stabilized MHC complexes. The assay was performed as generally described in Rodenko et al (Rodenko et al., 2006).
96 well MAXISorp plates (NUNC) were coated over night with 2 ug/ml streptavidin in PBS at room temperature, washed 4× and blocked for 1 h at 37° C. in 2% BSA containing blocking buffer. Refolded HLA-A*02:01/MLA-001 monomers served as standards, covering the range of 15-500 ng/ml. Peptide-MHC monomers of the UV-exchange reaction were diluted 100 fold in blocking buffer. Samples were incubated for 1h at 37° C., washed four times, incubated with 2 ug/ml HRP conjugated anti-62m for 1h at 37° C., washed again and detected with TMB solution that is stopped with […]. Absorption was measured at 450 nm. Candidate peptides that show a high exchange yield (preferably higher than 50%, most preferred higher than 75%) are generally preferred for a generation and production of antibodies or fragments thereof, and/or T cell receptors or fragments thereof, as they show sufficient avidity to the MHC molecules and prevent dissociation of the MHC complexes.

[2] = test system: CD4 T cells; assay: In vivo immunogenicity in vaccinated patients, intracellular cytokine staining (ICS) of CD4 T cells; set-up: species or system human; settings: IMA950 peptides, 16 patients, study IMA950-101
Method: The T-cell proliferation analysis included 5 peptides with known in vivo immunogenicity as positive controls. The in vivo immunogenicity of these peptides was determined in blood samples of patients vaccinated with these peptides in clinical trials using intracellular cytokine staining (ICS) of CD4 T cells.
In principle, ICS assays analyze the quality of specific T cells in terms of effector functions. Therefore the peripheral mononuclear cells (PBMCs) were re-stimulated in vitro with the peptide of interest, a reference peptide and a negative control (here MOCK). Following the re-stimulated cells were stained for IFN-gamma, TNF-alpha, IL-2 and IL-10 production, as well as expression of the co-stimulatory molecule CD154. The counting of stained cells was performed on a flow cytometer (FIG. 5).

[3] = test system: CD4+ T cells; assay: HLA class II T-cell proliferation assay (ProImmune, CFSE); assay type: cell-based, human; settings: for Number of positive donors: 21 donor samples, positive = over 0.02% stimulation above background; for Number of positive donors / Strength of response: mean in % above the background: 5 μM peptide, 7 days; for Strength of response: mean in % above the background: CD4+ T-cell proliferation (CFSE)
From the text: The experiments as follows summarize the results of T-cell Proliferation Assays of selected MHC class II TUMAPs. Nine of 10 tested peptide antigens tested positive for immunogenicity. […] Individual peptide antigens stimulated the CD4+ T-cell proliferation in up to 6 donors. […] Thus, it can be concluded that the newly tested peptides also have a high potential to induce T-cell responses in vaccine trials.
In order to characterize selected peptides for their potential especially as vaccine candidates, their in vitro immunogenicity was determined by analysis of T-cell proliferation using a commercial T-cell Proliferation Assay from the company ProImmune.
Healthy donor CD8-depleted blood cells samples were tested with the selected peptides. The peptides that induce the proliferation of CD4+ T cells can potentially result in the development of a helper T-cell immune response, and therefore are considered to be immunogenic. The proliferation of CD4+ T cells was determined using carboxyfluorescein succinimidyl ester (CFSE) labelling. In proliferating cells, CFSE is distributed evenly to dividing cells. Thus, the proliferation can be measured as a decrease in CFSE fluorescence in the cells as analyzed.
Peripheral blood mononuclear cell (PBMC) samples from healthy human donors were selected from the ProImmune cell bank based on HLA-DRB1 allele expression. CD8^+ T-cells were depleted from donor blood samples prior to use to avoid a false-positive response. The remaining CD4^+ T cells were labelled with CFSE and subsequently incubated with 5 μM of each selected peptide. Each peptide was tested in six replicated wells. The background was measured on each plate in six unstimulated control wells.
After an incubation period of 7 days the cells were co-stained with anti-CD4 antibody and analyzed by flow cytometry. The degree of proliferation was determined by measuring a reduction in CFSE intensity.
The evaluation of flow cytometric data was performed using FlowJo Software (Tree Star, Inc.). The results of flow cytometric analysis were expressed as the ratio of the CD4^+ dim population to the total CD4^+ population. The degree of proliferation was expressed as percentage of stimulation above background, i.e. proportion of antigen stimulated CD4^+ CFSE dim cells minus the proportion of CD4^+ CFSE dim cells from unstimulated control wells. For each sample, a mean and the corresponding standard error of the mean (SEM) of the six replicates were calculated.
Donors were chosen by HLA-DRB1 allele expression. The other two HLA class II loci (DQ and DP) have not been included into the analysis. The interesting DRB1 alleles were selected according to the frequencies of predicted peptide binding based on […] algorithm (Rammensee et al., 1999). For HLA-DR, binding was defined by a […] binding prediction score equal or greater than 18. This threshold score for binding was defined based on the analysis of binding scores of known published promiscuous HLA-DR ligands (Table 24).
All DRB1 alleles with binding frequency over 20% over all selected peptides were requested to be included into the donor panel) by ProImmune. 4 other rare DRB1 alleles (DRB1*10:01, DRB1*16:01, DRB1*08:01, and DRB1*13:03) were requested additionally.
The antigen-stimulated proliferation of CD4^+ T cells was considered as an indicator of in vitro immunogenicity and was investigated in a commercially available T-cell Proliferation Assay from ProImmune. The degree of antigen-stimulated CD4^+ T-cell proliferation was expressed as a percentage of stimulation above background. A response over 0.02% stimulation above background with SEM=2 (i.e. values two standard errors greater than background) was considered to be positive.

[4] = test system: CD4+ T cells; settings: 19 evaluable patients, prostate cancer-specific peptide vaccine (Feyerabend 2009; Widenmeyer 2008); cited from earlier work

Peptide exchange (MHC class I binding score) [1]: +++ (50%-75% = +++)
Substance: 55 (IYPVKYTQTF; listed as Homo sapiens) [compound 55]

Peptide exchange (MHC class I binding score) [1]: +++ (50%-75% = +++)
Substance: 80 (AYLKEVEQL; listed as Homo sapiens) [compound 80]

Peptide exchange (MHC class I binding score) [1]: +++ (50%-75% = +++)
Substance: 51 (NYLLESPHRF; listed as Homo sapiens) [compound 51]

Peptide exchange (MHC class I binding score) [1]: +++ (50%-75% = +++)
Substance: 31 (SYLDKVRAL; listed as Homo sapiens) [compound 31]

Substance: MET-005: IMA950 class II peptide, positive control with known in vivo immunogenicity (TFSYVDPVITSISPKYG; listed as Homo sapiens) [reference compound]
immune response by vaccination (ICS) [2]: 100%
Number of positive donors [3]: 4
Strength of response: mean in % above the background [3]: 0.31%

Peptide exchange (MHC class I binding score) [1]: +++ (50%-75% = +++)
Substance: 45 (KFLESKGYEF; listed as Homo sapiens) [compound 45]

Substance: BIR-002: IMA950 class II peptide, positive control with known in vivo immunogenicity (TLGEFLKLDRERAKN; listed as Homo sapiens) [reference compound]
immune response by vaccination (ICS) [2]: 100%
Number of positive donors [3]: 3
strength of stimulation response on average, above the background ([3]; CD4+ CFSE dim cells minus unstimulated control): 0.24%
Strength of response: mean in % above the background [3]: 0.24%
patients mounting a strong CD4+ T-cell response [4]: 84%

Peptide exchange (MHC class I binding score) [1]: +++ (50%-75% = +++)
Substance: 60 (SYPAKLSFI; listed as Homo sapiens) [compound 60]
